Counter-ions that a name gives are not always drawn.
How the values were obtained:
Type in all cases: physicochemical
[1] = Hygroscopic weight increment on placement (water absorption); details: for weight increase from absorption of water: after 5 days under certain (experimental) / similar conditions
[2] = Study of stability: chemical stability expressed in the HPLC purity
Procedure: (§1) The crystal form A of OAD2 was subject to a stability study. The crystal form A was tested stability in H2O, SGF (simulated gastric fluid), FeSSIF (simulated intestinal fluid in the feeding state) and FaSSIF (simulated intestinal fluid in the fasting state). The chemical stability was expressed in the HPLC purity. The crystal form stability was expressed by detecting the change of crystal form by XPRD.

[3] = Study of stability: crystal form stability by detecting the change of crystal form by XRPD
Procedure: X-ray powder dfraction (XRPD): Empyren; test conditions: power 40 kV×250 mA, CuKα radiation; scanning range 3˜40° (2θ); step width 0.02°; scanning speed 5/min; scanning method: continuous scanning.
as §1

[4] = Study of stability: chemical stability expressed in the HPLC purity; details: dihydrochloride
[5] = Placed at room temperature and room humidity, 28 d
[6] = Room temperature and room humidity ± 25° C./60% RH, 28 d + 7 d

SMILES: CC[C@@H](c1ccccc1)N1Cc2cc3c(cc2C[C@H]1C(=O)N[C@@H](Cc1ccc(-c2ccnc(C)c2C)cc1)C(=O)O)OC[C@H](c1ccc(OCc2ccc(Cl)c(Cl)c2)cc1)O3 [Crystal form A, (S)-2-(3S,8S)-3-(4-(3,4-dichlorobenzyloxy)phenyl-7-((S)-1-phenylpropyl)-2,3,6,7,8,9-hexahydro-[1,4]-dioxino[2,3-g]isoquinolin-8-ylformylamino)-3-(4-(2,3-dimethylpyridin-4-yl)phenyl)propionic acid]
- weight increase from absorption of water ([1]; listed as OAD2 crystalline Form A): did not gain weight
- weight increase from absorption of water ([1]; listed as crystal form A of OAD2): no measurable amount weight increase
- moisture absorption (in words) ([1]; listed as crystal form A of the free base): not easy to absorb moisture
- HPLC purity (area %) ([2]; 25° C./75 ± 5% RH, 7 d): 98.90 area %
- HPLC purity (area %) ([2]; High temperature 60° C., 5 d, listed as Crystal form A (2#)): 98.12 area %
- HPLC purity (area %) ([2]; Initial, 0 d, listed as Crystal form A (1#)): 98.88 area %
- HPLC purity (area %) ([2]; Initial, 0 d, listed as Crystal form A (2#)): 98.13 area %
- HPLC purity (area %) [2, 5]: 98.69 area %
- HPLC purity (area %) [2, 6]: 98.67 area %
- chemical stability (overall finding) ([2]; overall result of Table 3): good chemical stability
- Change of crystal form ([3]; 25° C./75 ± 5% RH, 7 d): no
- Change of crystal form ([3]; High temperature 60° C., 5 d): no
- Change of crystal form ([3]; Initial, 0 d): no
- Change of crystal form [3, 5]: no
- Change of crystal form [3, 6]: no
- Change of crystal form ([3]; Successively suspended in SGF/FeSSIF/FaSSIF/water, 1 d): no
- change of crystal form (overall finding) ([3]; under various conditions): did not change the crystal form

SMILES: CC[C@@H](c1ccccc1)N1Cc2cc3c(cc2C[C@H]1C(=O)N[C@@H](Cc1ccc(-c2ccnc(C)c2C)cc1)C(=O)O)OC[C@H](c1ccc(OCc2ccc(Cl)c(Cl)c2)cc1)O3 [OAD2 dihydrochloride, (S)-2-(3S,8S)-3-(4-(3,4-dichlorobenzyloxy)phenyl-7-((S)-1-phenylpropyl)-2,3,6,7,8,9-hexahydro-[1,4]-dioxino[2,3-g]isoquinolin-8-ylformylamino)-3-(4-(2,3-dimethylpyridin-4-yl)phenyl)propionic acid dihydrochloride, reference compound]
- HPLC purity (area %) ([4]; High temperature 60° C., 5 d): 98.70 area %
- HPLC purity (area %) ([4]; Initial, 0 d): 99.03 area %
- weight increase from absorption of water ([1]; dihydrochloride): 8.3%
- weight increase from absorption of water ([1]; listed as OAD2 dihydrochloride salt, dihydrochloride): 8.3%
- moisture absorption (in words) ([1]; listed as dihydrochloride salt of OAD2, dihydrochloride): absorbs moisture
- HPLC purity (area %) ([2]; 25°C/75+5% RH, 5 d): 99.07 area %
